Measurements published in ChEMBL document CHEMBL5518204, “Discovery and Proof of Concept of Potent Dual Polθ/PARP Inhibitors for Efficient Treatment of Homologous Recombination-Deficient Tumors” (J Med Chem, 2024).

Key:
[1] = molecular target: T1, Poly [ADP-ribose] polymerase tankyrase-1 (Homo sapiens, UniProt O95271); assay: Inhibition of PARP5a (unknown origin)
T1 sequence (O95271 whole entry): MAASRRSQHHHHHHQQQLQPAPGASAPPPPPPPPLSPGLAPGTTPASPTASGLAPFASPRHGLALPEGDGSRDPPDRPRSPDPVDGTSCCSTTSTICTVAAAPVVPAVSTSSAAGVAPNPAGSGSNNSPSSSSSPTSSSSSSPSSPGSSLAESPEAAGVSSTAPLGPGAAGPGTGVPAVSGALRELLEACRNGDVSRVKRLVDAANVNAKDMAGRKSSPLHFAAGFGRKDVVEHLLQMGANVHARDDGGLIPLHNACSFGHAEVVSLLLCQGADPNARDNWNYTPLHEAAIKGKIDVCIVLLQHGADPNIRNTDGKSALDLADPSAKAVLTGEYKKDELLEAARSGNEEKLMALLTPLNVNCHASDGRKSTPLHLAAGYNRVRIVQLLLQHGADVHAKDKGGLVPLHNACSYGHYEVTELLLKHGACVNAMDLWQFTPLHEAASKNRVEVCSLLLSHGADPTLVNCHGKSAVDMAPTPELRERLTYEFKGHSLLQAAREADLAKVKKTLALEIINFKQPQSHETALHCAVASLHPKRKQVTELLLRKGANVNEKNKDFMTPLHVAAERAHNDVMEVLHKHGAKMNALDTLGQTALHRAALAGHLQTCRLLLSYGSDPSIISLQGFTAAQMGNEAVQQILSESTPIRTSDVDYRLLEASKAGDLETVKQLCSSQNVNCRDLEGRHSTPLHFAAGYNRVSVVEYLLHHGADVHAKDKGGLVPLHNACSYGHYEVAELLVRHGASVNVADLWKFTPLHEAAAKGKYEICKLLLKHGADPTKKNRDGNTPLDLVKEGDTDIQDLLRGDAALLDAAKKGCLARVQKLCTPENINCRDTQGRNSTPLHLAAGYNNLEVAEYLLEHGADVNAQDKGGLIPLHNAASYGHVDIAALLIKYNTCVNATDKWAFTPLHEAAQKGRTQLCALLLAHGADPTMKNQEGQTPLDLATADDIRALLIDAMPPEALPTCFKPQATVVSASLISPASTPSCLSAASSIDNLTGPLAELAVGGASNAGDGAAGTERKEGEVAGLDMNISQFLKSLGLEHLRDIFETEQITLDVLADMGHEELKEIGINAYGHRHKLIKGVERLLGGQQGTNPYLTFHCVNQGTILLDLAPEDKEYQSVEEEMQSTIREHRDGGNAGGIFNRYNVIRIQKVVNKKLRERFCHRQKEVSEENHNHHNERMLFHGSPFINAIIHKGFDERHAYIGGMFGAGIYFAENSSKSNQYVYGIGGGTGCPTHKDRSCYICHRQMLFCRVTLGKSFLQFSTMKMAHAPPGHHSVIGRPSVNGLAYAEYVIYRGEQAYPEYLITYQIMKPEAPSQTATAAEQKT

[2] = Metabolic stability in rat liver microsome assessed as intrinsic clearance; assay type: ADME; conditions: liver microsomes, read-out: CLH
[3] = Volume of distribution at steady state in Sprague-Dawley rat at 1 mg/kg, iv by LC-MS/MS analysis; assay type: ADME, organism-based; conditions: in vivo, read-out: Vdss
[4] = Apparent volume of distribution in Sprague-Dawley rat at 1 mg/kg, iv by LC-MS/MS analysis; assay type: ADME, organism-based; conditions: in vivo, read-out: Vz
[5] = Metabolic stability in human liver microsome assessed as half life; assay type: ADME; conditions: liver microsomes
[6] = molecular target: Poly [ADP-ribose] polymerase 2 (Homo sapiens, UniProt Q9UGN5); assay: Inhibition of PARP2 (unknown origin)
[7] = Stability in rat plasma assessed as half life; assay type: ADME, cell-free
[8] = Toxicity in BALB/c mouse xenografted with human MDA-MB-231 cells assessed as heart damage at 20 to 40 mg/kg, ip administered for 21 days by H and E staining based analysis; assay type: organism-based; conditions: in vivo, 504 h, dose 20-40 mg/kg, time 21 day
[9] = molecular target: T2, Poly [ADP-ribose] polymerase tankyrase-2 (Homo sapiens, UniProt Q9H2K2); assay: Inhibition of PARP5b (unknown origin)
T2 sequence (Q9H2K2 whole entry): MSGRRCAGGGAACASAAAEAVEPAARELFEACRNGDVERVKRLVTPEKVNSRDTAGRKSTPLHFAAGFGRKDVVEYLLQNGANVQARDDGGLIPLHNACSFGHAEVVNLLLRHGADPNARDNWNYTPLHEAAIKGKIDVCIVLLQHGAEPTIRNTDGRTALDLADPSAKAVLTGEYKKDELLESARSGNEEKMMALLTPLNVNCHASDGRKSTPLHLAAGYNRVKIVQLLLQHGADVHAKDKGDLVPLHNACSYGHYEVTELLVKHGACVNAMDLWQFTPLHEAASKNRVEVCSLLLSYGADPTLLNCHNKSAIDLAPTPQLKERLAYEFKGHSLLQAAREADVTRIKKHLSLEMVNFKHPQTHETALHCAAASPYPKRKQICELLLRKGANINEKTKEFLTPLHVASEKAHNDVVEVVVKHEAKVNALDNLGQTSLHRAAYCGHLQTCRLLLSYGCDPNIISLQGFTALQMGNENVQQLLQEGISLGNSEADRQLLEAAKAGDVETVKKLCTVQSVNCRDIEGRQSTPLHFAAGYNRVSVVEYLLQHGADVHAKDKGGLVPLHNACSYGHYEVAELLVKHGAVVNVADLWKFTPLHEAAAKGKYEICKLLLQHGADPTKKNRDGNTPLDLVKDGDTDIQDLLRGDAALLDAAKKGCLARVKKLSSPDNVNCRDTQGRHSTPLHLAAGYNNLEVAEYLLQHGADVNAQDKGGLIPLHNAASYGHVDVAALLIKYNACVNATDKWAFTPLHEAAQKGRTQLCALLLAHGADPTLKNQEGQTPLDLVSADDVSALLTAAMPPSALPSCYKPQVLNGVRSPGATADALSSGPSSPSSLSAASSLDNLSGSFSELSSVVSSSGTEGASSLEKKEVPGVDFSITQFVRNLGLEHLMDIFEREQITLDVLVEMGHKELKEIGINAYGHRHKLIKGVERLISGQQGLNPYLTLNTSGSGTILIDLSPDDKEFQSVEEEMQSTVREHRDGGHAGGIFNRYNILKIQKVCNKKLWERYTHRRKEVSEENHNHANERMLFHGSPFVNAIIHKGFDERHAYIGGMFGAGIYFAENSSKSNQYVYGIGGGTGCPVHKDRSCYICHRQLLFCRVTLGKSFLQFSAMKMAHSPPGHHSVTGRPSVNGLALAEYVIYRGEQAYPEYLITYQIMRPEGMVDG

[10] = tested on: SK-OV-3; assay: Antiproliferative activity against BRCA-proficient human SK-OV-3 cells assessed as inhibition of cell proliferation incubated for 5 days by MTT assay; assay type: functional, cell-based; conditions: SK-OV-3, 120 h
[11] = Toxicity in BALB/c mouse xenografted with human MDA-MB-231 cells assessed as increase in body weight at 20 to 40 mg/kg, ip administered for 21 days; assay type: organism-based; conditions: in vivo, 504 h, dose 20-40 mg/kg, time 21 day

Poly [ADP-ribose] polymerase 2, sequence (Q9UGN5 whole entry): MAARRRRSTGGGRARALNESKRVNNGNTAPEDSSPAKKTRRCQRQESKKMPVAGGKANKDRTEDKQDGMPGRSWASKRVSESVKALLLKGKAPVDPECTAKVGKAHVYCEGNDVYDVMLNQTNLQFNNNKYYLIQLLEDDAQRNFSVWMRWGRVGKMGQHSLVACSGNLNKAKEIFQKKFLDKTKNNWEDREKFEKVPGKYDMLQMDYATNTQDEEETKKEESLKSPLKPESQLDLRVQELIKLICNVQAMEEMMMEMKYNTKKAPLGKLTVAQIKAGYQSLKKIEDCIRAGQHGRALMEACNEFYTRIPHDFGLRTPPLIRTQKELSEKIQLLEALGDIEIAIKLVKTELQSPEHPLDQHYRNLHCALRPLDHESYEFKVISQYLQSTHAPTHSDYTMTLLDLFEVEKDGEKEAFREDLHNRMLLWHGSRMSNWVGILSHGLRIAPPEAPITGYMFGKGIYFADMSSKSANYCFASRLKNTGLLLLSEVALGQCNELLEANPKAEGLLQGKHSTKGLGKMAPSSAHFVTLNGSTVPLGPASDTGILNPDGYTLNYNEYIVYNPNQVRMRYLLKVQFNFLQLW

- IC50 [1]: 206 nM
- CLint scaled [2]: 802 mL/min/kg
- Vd [3]: 1.12 L/kg
- Vd [4]: 3.97 L/kg
- half-life [5]: 2.35 min
- IC50 [6]: 2.3 nM
- half-life [7]: 38.5 h
- IC50 [9]: 156 nM
- IC50 [10]: 18900 nM
Structure (SMILES): COc1ccc(Cl)cc1-c1cc(C)ncc1C(=O)Nc1nnc(OCC2CCN(C(=O)c3cc(Cc4n[nH]c(=O)c5ccccc45)ccc3F)CC2)s1
- Activity [8]: Non-Toxic
- Activity [11]: Non-Toxic
